{"source": "patent US20240391902A1", "about": "“Crystalline Form of Compound” (Shenzhen Forward Pharmaceuticals Co., Limited, priority 2020, published 2024)", "key": {"[1]": {"assay": "Dynamic solubility test", "type": "physicochemical", "settings": "room temperature, feeding concentration 10 mg/mL, listed as compound of formula (I)", "method": "Determination method: According to a feeding concentration of 10 mg/mL, about 50 mg of the sample were weighed and added to 5 mL of the corresponding medium, and the sample was dissolved by rotating at […] at room temperature."}, "[2]": {"tested_on": "EGFR activating mutation (exon 19 deletion activating mutation, L858R activating mutation, T790M drug resistance mutation and exon 20 insertion mutation)", "settings": "disclosed in CN105461695B; cited from earlier work"}}}
{"smiles": "C=CC(=O)Nc1cc(Nc2ncnc(-c3cn(C)c4ccccc34)n2)c(OC)cc1N(C)CCN(C)C", "note": "[Example 21]", "values": [{"measurement": "dynamic solubility", "setting": "[1]; SGF, 0.5 h", "value": "<1000", "unit": "µg/mL"}, {"measurement": "dynamic solubility", "setting": "[1]; SGF, 1 h", "value": "<1000", "unit": "µg/mL"}, {"measurement": "dynamic solubility", "setting": "[1]; SGF, 2 h", "value": "<1000", "unit": "µg/mL"}, {"measurement": "dynamic solubility", "setting": "[1]; SGF, 4 h", "value": "<1000", "unit": "µg/mL"}, {"measurement": "dynamic solubility", "setting": "[1]; SGF, 24 h", "value": "<1000", "unit": "µg/mL"}, {"measurement": "dynamic solubility", "setting": "[1]; water, 0.5 h", "value": "<1000", "unit": "µg/mL"}, {"measurement": "dynamic solubility", "setting": "[1]; water, 1 h", "value": "<1000", "unit": "µg/mL"}, {"measurement": "dynamic solubility", "setting": "[1]; water, 2 h", "value": "<1000", "unit": "µg/mL"}, {"measurement": "dynamic solubility", "setting": "[1]; water, 4 h", "value": "<1000", "unit": "µg/mL"}, {"measurement": "dynamic solubility", "setting": "[1]; water, 24 h", "value": "<1000", "unit": "µg/mL"}, {"measurement": "inhibitory activity against EGFR activating mutation compared with wild-type EGFR (WT EGFR)", "setting": "[2]", "value": "significantly higher"}]}
